≈ marks a conversion by molar mass, not a printed value.
What was measured:
[1] = Lipophilicity, log D of compound by chromatographic method; assay type: physicochemical
[2] = Corrector activity of Z variant alpha1-antitrypsin misfolding (unknown origin) expressed in CHO cells assessed as inhibition of Z variant alpha1-antitrypsin polymerisation; assay type: cell-based, Homo sapiens
[3] = Metabolic stability in human hepatocytes assessed as intrinsic clearance measured per gm of tissue; assay type: ADME, cell-based, Hepatocyte
[4] = Kinetic solubility of compound; assay type: physicochemical; conditions: read-out: Kinetic_solubility
[5] = Corrector activity of Z variant alpha1-antitrypsin misfolding (unknown origin) assessed as inhibition of Z variant alpha1-antitrypsin polymerisation by TR-FRET assay; set-up: species or system Homo sapiens
[6] = Corrector activity of Z variant alpha1-antitrypsin misfolding (unknown origin) expressed in CHO cells assessed as inhibition of Z variant alpha1-antitrypsin polymerisation by measuring increase in Z alpha1 antitrypsin secretion; assay type: cell-based
[7] = Binding affinity to Z variant alpha1-antitrypsin (unknown origin) by competition binding assay; set-up: species or system Homo sapiens
[8] = Elimination half life in Wistar Han rat at 1 mg/kg, iv; assay type: ADME, organism-based; conditions: in vivo, read-out: beta t1/2 (converted)
[9] = Clearance in rat hepatocytes measured per gm of tissue; assay type: ADME, cell-based, Hepatocyte
[10] = Volume of distribution in Wistar Han rat at 1 mg/kg, iv; assay type: ADME, organism-based; conditions: in vivo
[11] = Protein binding in human blood; assay type: ADME, tissue-based; conditions: read-out: PB
[12] = target: Albumin (Homo sapiens, UniProt P02768); assay: Binding affinity to human serum albumin; assay type: ADME; conditions: isolated protein
[13] = Protein binding in human plasma; assay type: ADME, cell-free; conditions: read-out: PPB
[14] = Clearance in Wistar Han rat blood at 1 mg/kg, iv; assay type: ADME, organism-based
[15] = Protein binding in rat plasma; assay type: ADME, cell-free; conditions: read-out: PPB (converted)

Chain of Albumin (P02768 whole entry): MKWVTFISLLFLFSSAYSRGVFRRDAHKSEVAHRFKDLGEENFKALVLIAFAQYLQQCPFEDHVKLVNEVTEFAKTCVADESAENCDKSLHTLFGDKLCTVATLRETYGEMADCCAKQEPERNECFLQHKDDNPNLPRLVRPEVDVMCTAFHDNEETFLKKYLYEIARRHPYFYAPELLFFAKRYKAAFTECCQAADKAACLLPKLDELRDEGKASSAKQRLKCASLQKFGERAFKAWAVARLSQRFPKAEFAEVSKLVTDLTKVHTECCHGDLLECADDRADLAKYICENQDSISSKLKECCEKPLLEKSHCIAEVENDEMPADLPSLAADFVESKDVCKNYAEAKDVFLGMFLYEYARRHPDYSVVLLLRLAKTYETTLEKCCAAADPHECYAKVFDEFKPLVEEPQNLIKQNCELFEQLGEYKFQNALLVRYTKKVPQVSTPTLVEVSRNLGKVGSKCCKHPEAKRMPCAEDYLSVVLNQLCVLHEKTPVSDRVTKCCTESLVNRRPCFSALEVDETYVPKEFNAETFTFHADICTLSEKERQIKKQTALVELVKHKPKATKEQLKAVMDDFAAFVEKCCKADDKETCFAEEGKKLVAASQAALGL

| Compound | chromatographic logD [1] | pIC50 [2] | CLH [3] | solubility kinetic [4] | pIC50 [5] | further results |
| --- | --- | --- | --- | --- | --- | --- |
| CCC[C@@H](NC(=O)c1cccc2c1CC(=O)N2)[C@@H](O)c1ccccc1Cl | 3.6 | 5.7 | 0.4 mL/min/g | ≥ 356 µM | 8.1 | – |
| CCC[C@@H](NC(=O)c1ccnc2c1CC(=O)N2)[C@@H](O)c1cccc(Cl)c1C | 3.9 | 5.9 | 0.9 mL/min/g | ≥ 314 µM | 8.1 | – |
| CCC[C@@H](NC(=O)c1cccc2c1CC(=O)N2)[C@@H](O)c1ccccc1C(F)(F)F | 3.7 | 4.9 | 0.2 mL/min/g | ≥ 420 µM | 7.3 | – |
| CCC[C@@H](NC(=O)c1ccc2cc[nH]c2c1)[C@@H](O)c1ccccc1 | 4.3 | 4.5 | – | ≥ 439 µM | 6.5 | – |
| CCC[C@@H](NC(=O)c1cccc2c1CC(=O)N2)[C@@H](O)c1ncccc1C | 3.2 | 4.4 | – | ≥ 392 µM | 6.6 | – |
| CCC[C@@H](NC(=O)c1cncc2[nH]c(=O)[nH]c12)[C@@H](O)c1cccc(Cl)c1C | 3.4 | 4.2 | – | ≥ 227 µM | 7.4 | – |
| CCC[C@H](NC(=O)c1ccc2cc[nH]c2c1)[C@H](O)c1ccccc1 | – | – | – | – | < 4 | – |
| CCC[C@@H](NC(=O)c1cccc2c1CC(=O)N2)[C@@H](O)c1ccccc1C | 3.4 | 5.6 | 0.3 mL/min/g | ≥ 395 µM | 8.3 | – |
| CCC[C@@H](NC(=O)c1ccc2cc[nH]c2c1)[C@H](O)c1ccccc1 | – | – | – | – | 5.5 | – |
| CCC[C@@H](NC(=O)c1cccc2c1NC(=O)C2)[C@@H](O)c1cccc(Cl)c1C | 5.2 | 6.3 | 3.7 mL/min/g | 128 µM (≈ 49.5 µg/mL) | 8.6 | – |
| CCCC(NC(=O)c1ccc2cc[nH]c2c1)C(O)c1ccccc1 (stereo unspecified) | – | – | – | – | 6.5 | IC50 [5]: 300 nM |
| CCC[C@@H](NC(=O)c1cccc2c1CC(=O)N2)[C@@H](O)c1cccc(F)c1C | 3.8 | 6.3 | 0.3 mL/min/g | ≥ 528 µM | 8.3 | EC50 [6]: 631 nM; pKd [7]: 8.5; half-life [8]: 30 min; CLH [9]: 7.4 mL/min/g; Vd [10]: 2.3 L/kg; fraction unbound [11]: < 0.02; Activity [12]: 84%; fraction unbound [13]: < 0.02; clearance [14]: 69 mL/min/kg; fraction unbound [15]: 0.19 |
| CCC[C@@H](NC(=O)c1cccc2c1CC(=O)N2)[C@@H](O)c1cccc(F)c1Cl | 3.7 | 6.2 | < 0.4 mL/min/g | ≥ 504 µM | 8.2 | – |
| CCC[C@@H](NC(=O)c1cccc2[nH]c(=O)oc12)[C@@H](O)c1cccc(Cl)c1C | 5.1 | 5.4 | – | 326 µM (≈ 127 µg/mL) | 8 | – |
| CCC[C@@H](NC(=O)c1ccc2oc(=O)[nH]c2c1)[C@@H](O)c1ccccc1 | 3.2 | < 4 | – | 299 µM (≈ 102 µg/mL) | 6.3 | – |
| CCC[C@@H](NC(=O)c1cccc2[nH]c(=O)ccc12)[C@@H](O)c1cccc(Cl)c1C | 3.7 | 4.8 | – | 309 µM (≈ 123 µg/mL) | 7.7 | – |
| CCC[C@@H](NC(=O)c1cccc2c1CC(=O)N2)[C@@H](O)c1cccc(C)c1 | 3.6 | 5.7 | – | 19 µM (≈ 6.7 µg/mL) | 8.1 | – |
| CCC[C@@H](NC(=O)c1ccc2oc(=O)[nH]c2c1)[C@@H](O)c1ccccc1C | 3.9 | 4.3 | – | ≥ 420 µM | 6.9 | – |
| CCC[C@H](NC(=O)c1ccc2cc[nH]c2c1)[C@@H](O)c1ccccc1 | – | – | – | – | 4.1 | – |
| CCC[C@@H](NC(=O)c1cccc2oc(=O)[nH]c12)[C@@H](O)c1cccc(Cl)c1C | 5.2 | 5.1 | – | 233 µM (≈ 90.6 µg/mL) | 8.2 | – |
| CCC[C@@H](NC(=O)c1cccc2c1CC(=O)N2)[C@@H](O)c1ccncc1C | 1.6 | < 4 | – | 300 µM (≈ 106 µg/mL) | 6.5 | – |
| CCC[C@@H](NC(=O)c1ccnc2[nH]c(=O)[nH]c12)[C@@H](O)c1cccc(Cl)c1C | 3.9 | 5.5 | – | 200 µM (≈ 77.8 µg/mL) | 8 | – |
| CCC[C@@H](NC(=O)c1cccc2c1CC(=O)N2)[C@@H](O)c1cccc(Cl)c1 | 3.7 | 6 | – | 52 µM (≈ 19.4 µg/mL) | 8.4 | – |
| CCC[C@@H](NC(=O)c1cccc2c1CC(=O)N2)[C@@H](O)c1ccccc1CC | 4.1 | 6 | 1.6 mL/min/g | ≥ 316 µM | 8.3 | – |
| CCC[C@@H](NC(=O)c1cccc2c1CC(=O)N2)[C@@H](O)c1cccc(Cl)c1C | 4.3 | 6.7 | 0.4 mL/min/g | ≥ 450 µM | 8.6 | – |
| CCC[C@@H](NC(=O)c1cccc2c1CC(=O)N2)[C@@H](O)c1ccccc1OC | 3.4 | 5.1 | < 0.8 mL/min/g | ≥ 299 µM | 7.8 | – |
| CCC[C@@H](NC(=O)c1cccc2c1CC(=O)N2)[C@@H](O)c1cnccc1C | 1.9 | < 4 | – | ≥ 346 µM | 5.9 | – |
| CCC[C@@H](NC(=O)c1cccc2c1CC(=O)N2)[C@@H](O)c1cc(Cl)ccc1C | 4.3 | 5.3 | – | ≥ 408 µM | 8.6 | – |
| CCC[C@@H](NC(=O)c1cccc2[nH]c(=O)[nH]c12)[C@@H](O)c1cccc(Cl)c1C | 4.4 | 6.5 | 1.8 mL/min/g | 307 µM (≈ 119 µg/mL) | 8.5 | – |
